Experimental data reported in patent US20230295201A1 (Gilead Sciences, Inc., priority 2020, published 2023).
Like-named read-outs stand apart in the source and are kept apart here.

Experiments:
HRV1a = experiment: HRV1A HELA EC50 (cytopathic effect in H1-HeLa cells); assay type: cell-based; conditions: 96 h, read-out: HRV1A HELA EC50
Description: H1-HeLa cells, cultured in complete RPMI 1640 medium containing 10% heat-inactivated FBS and 1% Penicillin/Streptomycin, were seeded in 96 well plates at 5000 cells/well one day prior to compound dosing and infection. The antiviral activity of each compound was measured in triplicate. Compounds were added directly to the cell cultures in serial 3-fold dilutions using the HP300 digital dispenser (Hewlett Packard, Palo Alto, CA) immediately prior to infection. The plates were transferred to BSL-2 containment and 100 μL of 1/4000 dilution of HRV1a virus stock was added to each well containing cells and serially diluted compounds. Each plate included 6 wells of infected untreated cells and 6 wells of cells containing 5 μM Rupintrivir that served as 0% and 100% virus inhibition control, respectively. Following the infection, test plates were incubated for 96 h in a tissue culture incubator set to 37° C./5% CO2. Following incubation, the H1-HeLa cells were removed from incubation and allowed to equilibrate to 25° C. Cell viability was determined by removing 100 μL of culture medium and adding 100 μL of Cell-Titer Glo viability reagent. The mixtures were incubated on a shaker for 10 minutes at 25° C., and the luminescence signal was quantified on an Envision luminescence plate reader.

RSV A strain A2 = experiment: RSV HAE EC50 (intracellular RSV RNA by real-time PCR in HAE cells); assay type: cell-based; conditions: human respiratory syncytial virus, 72 h, read-out: RSV HAE EC50
Description: HAE cells are cultured at the air-liquid interface and have an apical side that is exposed to the air and a basal side that is in contact with the medium. Prior to experimentation, HAE were removed from their agar-based shipping packaging and were acclimated to 37° C./5% CO2 overnight in 1 ml of HAE Assay medium (AIR-100-MM, Mattek Corp). HAE were prepared for infection by washing the apical surface twice with 400 μL of PBS (either utilizing direct pipetting methods or by running each transwell through a trough containing PBS) to remove the mucus layer. Apical chambers were drained of PBS and tapped gently onto absorbent material to remove as much PBS as possible. After washing, the cells were transferred to fresh HAE maintenance media containing 4-fold serially diluted compound, delivered to the basal side of the cell monolayer, and apically infected with 100 μL of a 1:600 dilution of RSV A strain A2 1000× stock (ABI, Columbia, MD, cat #10-124-000) in HAE assay medium for 3 hours at 37° C. in 5% CO2. The virus inoculum was removed and the apical surface of the cells was washed 3 times with PBS using either method previously described. The cells were then cultured in the presence of compound for 3 days at 37° C. Following the incubation, total RNA was extracted from the HAE cells using a MagMAX-96 Viral RNA isolation kit (Applied Biosystems, Foster City, CA, Cat #AM1836) and intracellular RSV RNA was quantified by real-time PCR. Approximately 25 ng of purified RNA was added to a PCR reaction mixture that contained 0.9 μM RSV N Forward and RSV N Reverse primers, 0.2 μM RSV N Probe and 1×Taqman RNA-to-Ct 1-Step Kit (Applied Biosystems, Foster City, CA, Cat #4392938). RNA levels were normalized using a Tagman GAPDH control primer set (Applied Biosystems, Foster City, CA, Cat #402869). Real-Time PCR Primers and Probe Used in the RSV A2 HAE Antiviral Assay: […]

Compound | EC50 (HRV1a) | EC50 (RSV A strain A2; HAE) | also measured
CCC(CC)OC(=O)[C@H](C)NP(=O)(OC[C@@]1(C#N)O[C@@H](c2ccc3c(N)ncnn23)[C@H](O)[C@@H]1O)Oc1ccccc1 (stereo partly drawn) [Example 101, (2S)-pentan-3-yl 2-(((((2R,3S,4R,5S)-5-(4-aminopyrrolo[2,1-f][1,2,4]triazin-7-yl)-2-cyano-3,4-dihydroxytetrahydrofuran-2-yl)methoxy)(phenoxy)phosphoryl)amino)propanoate] | 1630 nM |  | 
C[C@H](NP(=O)(OC[C@@]1(C#N)O[C@@H](c2ccc3c(N)ncnn23)[C@H](O)[C@@H]1O)Oc1ccccc1)C(=O)OCC1CC1 (mixture of isomers) [Example 8, (2S)-cyclopropylmethyl 2-(((((2R,3S,4R,5S)-5-(4-aminopyrrolo[2,1-f][1,2,4]triazin-7-yl)-2-cyano-3,4-dihydroxytetrahydrofuran-2-yl)methoxy)(phenoxy)phosphoryl)amino)propanoate] | 211 nM |  | 
CCC(CC)COC(=O)[C@H](CC)NP(=O)(OC[C@@]1(C#N)O[C@@H](c2ccc3c(N)ncnn23)[C@H](O)[C@@H]1O)Oc1ccccc1 (mixture of isomers) [Example 88, (2S)-2-ethylbutyl 2-(((((2R,3S,4R,5S)-5-(4-aminopyrrolo[2,1-f][1,2,4]triazin-7-yl)-2-cyano-3,4-dihydroxytetrahydrofuran-2-yl)methoxy)(phenoxy)phosphoryl)amino)butanoate] | 581 nM |  | 
CCCCCCCCCCCCCCCCCCOC[C@H](COP(=O)(O)OC[C@@]1(C#N)O[C@@H](c2ccc3c(N)ncnn23)[C@H](O)[C@@H]1O)OCc1ccccc1 [Example 96, ((2R,3S,4R,5S)-5-(4-aminopyrrolo[2,1-f][1,2,4]triazin-7-yl)-2-cyano-3,4-dihydroxytetrahydrofuran-2-yl)methyl ((R)-2-(benzyloxy)-3-(octadecyloxy)propyl) hydrogen phosphate] |  |  | EC50 (HRV1a; H1-HeLa cells): 1580 nM; EC50 (RSV A strain A2; HAE cells, RSV A2, 3 days): 22400 nM
C[C@H](NP(=O)(OC[C@@]1(C#N)O[C@@H](c2ccc3c(N)ncnn23)[C@H](O)[C@@H]1O)Oc1ccccc1)C(=O)OC1CCCCC1 (stereo partly drawn) [Example 4, (2S)-cyclohexyl 2-(((((2R,3S,4R,5S)-5-(4-aminopyrrolo[2,1-f][1,2,4]triazin-7-yl)-2-cyano-3,4-dihydroxytetrahydrofuran-2-yl)methoxy)(phenoxy)phosphoryl)amino)propanoate] | 190 nM |  | 
C[C@H](N[P@](=O)(OC[C@@]1(C#N)O[C@@H](c2ccc3c(N)ncnn23)[C@H](O)[C@@H]1O)Oc1ccccc1)C(=O)O[C@H]1CC[C@H](C(C)(C)C)CC1 (single isomer, unassigned) [Example 22] |  | 19 nM | 
CCCCCCCCCCCCCCCCOCCCOP(=O)(O)OC[C@@]1(C#N)O[C@@H](c2ccc3c(N)ncnn23)[C@H](O)[C@@H]1O [Example 149, ((2R,3S,4R,5S)-5-(4-aminopyrrolo[2,1-f][1,2,4]triazin-7-yl)-2-cyano-3,4-dihydroxytetrahydrofuran-2-yl)methyl (3-(hexadecyloxy)propyl) hydrogen phosphate] |  |  | EC50 (RSV A strain A2; HAE cells, RSV A2, 3 days): 188 nM
CCC(CC)COC(=O)[C@@H](C)NP(=O)(OC[C@@]1(C#N)O[C@@H](c2ccc3c(N)ncnn23)[C@H](O)[C@@H]1O)Oc1ccccc1 (stereo partly drawn) [Example 82, (2R)-2-ethylbutyl 2-(((((2R,3S,4R,5S)-5-(4-aminopyrrolo[2,1-f][1,2,4]triazin-7-yl)-2-cyano-3,4-dihydroxytetrahydrofuran-2-yl)methoxy)(phenoxy)phosphoryl)amino)propanoate] | 2780 nM |  | 
C[C@H](NP(=O)(OC[C@@]1(C#N)O[C@@H](c2ccc3c(N)ncnn23)[C@H](O)[C@@H]1O)Oc1ccccc1)C(=O)OCC(C)(C)C (stereo partly drawn) [Example 92, (2S)-neopentyl 2-(((((2R,3S,4R,5S)-5-(4-aminopyrrolo[2,1-f][1,2,4]triazin-7-yl)-2-cyano-3,4-dihydroxytetrahydrofuran-2-yl)methoxy)(phenoxy)phosphoryl)amino)propanoate] | 97 nM |  | 
C[C@H](N[P@](=O)(OC[C@@]1(C#N)O[C@@H](c2ccc3c(N)ncnn23)[C@H](O)[C@@H]1O)Oc1ccccc1)C(=O)O[C@H]1CC[C@H](C(F)(F)F)CC1 (single isomer, unassigned) [Example 18] |  | 27 nM | 
CCCCCCCCCCCC(=O)OCCNP(=O)(OC[C@@]1(C#N)O[C@@H](c2ccc3c(N)ncnn23)[C@H](O)[C@@H]1O)Oc1ccccc1 (mixture of isomers) [Example 181, 2-(((((2R,3S,4R,5S)-5-(4-aminopyrrolo[2,1-f][1,2,4]triazin-7-yl)-2-cyano-3,4-dihydroxytetrahydrofuran-2-yl)methoxy)(phenoxy)phosphoryl)amino)ethyl dodecanoate] |  | 212 nM | 
CCCCCCCCCCCCOC(=O)[C@H](C)NP(=O)(OC[C@@]1(C#N)O[C@@H](c2ccc3c(N)ncnn23)[C@H](O)[C@@H]1O)Oc1ccccc1 (stereo partly drawn) [Example 191, dodecyl ((((2R,3S,4R,5S)-5-(4-aminopyrrolo[2,1-f][1,2,4]triazin-7-yl)-2-cyano-3,4-dihydroxytetrahydrofuran-2-yl)methoxy)(phenoxy)phosphoryl)-L-alaninate] |  | 11 nM | 
CC[C@H](NP(=O)(OC[C@@]1(C#N)O[C@@H](c2ccc3c(N)ncnn23)[C@H](O)[C@@H]1O)Oc1ccccc1)C(=O)OC1CCCCC1 (mixture of isomers) [Example 103, (2S)-cyclohexyl 2-(((((2R,3S,4R,5S)-5-(4-aminopyrrolo[2,1-f][1,2,4]triazin-7-yl)-2-cyano-3,4-dihydroxytetrahydrofuran-2-yl)methoxy)(phenoxy)phosphoryl)amino)butanoate] | 1020 nM |  | 
CC(C)OC(=O)[C@H](C)NP(=O)(OC[C@@]1(C#N)O[C@@H](c2ccc3c(N)ncnn23)[C@H](O)[C@@H]1O)Oc1ccccc1 (mixture of isomers) [Example 77, Isopropyl ((((2R,3S,4R,5S)-5-(4-aminopyrrolo[2,1-f][1,2,4]triazin-7-yl)-2-cyano-3,4-dihydroxytetrahydrofuran-2-yl)methoxy)(phenoxy)phosphoryl)-L-alaninate] | 736 nM |  | 
CCC(CC)COC(=O)[C@H](C)N[P@](=O)(OC[C@@]1(C#N)O[C@@H](c2ccc3c(N)ncnn23)[C@H](O)[C@@H]1O)Oc1ccccc1 (single isomer, unassigned) [Example 25] |  | 152 nM | 
